Source: US10947574B2, “Method for producing fermented carotenoid using carotenoid-producing bacteria obtained by using cobalt-containing culturing medium” (ENEOS CORPORATION, priority 2015, dated 2021)

Tested on: Paracoccus carotinifaciens strain E-396 (FERM BP-4283)
Format: cell-based
Conditions: each trace metal added singly at final concentration of Table 1; shaking at 28° C. for 4 days
Method: Subsequently, a medium of the following composition (glucose 30 g/L, filtered corn steep liquor 30 g/L, ammonium sulfate 1.5 g/L, potassium dihydrogen phosphate 1.5 g/L, disodium hydrogen phosphate dodecahydrate 3.8 g/L, calcium chloride dihydrate 5.0 g/L, magnesium sulfate heptahydrate 0.7 g/L, iron sulfate heptahydrate 1.0 g/L, silicon-based defoaming agent 0.2 g/L) was dispensed in 7.2 ml volumes into cotton-plugged test tubes having an inner diameter of 18 mm to prepare 13 test tubes containing a test tube medium for production. The ingredients used to prepare the test tube medium for production were obtained from lots where microbial cells had been confirmed not to grow well.
The 12 trace metals indicated in Table 1 were separately prepared in 0.8 ml volumes to have their final concentrations indicated in Table 1 and then added to the above 12 test tubes for production, respectively. The remaining one test tube was supplemented with 0.8 ml of ion exchanged water.
The resulting culture solution was then inoculated in 0.05 ml volumes into the 13 types of test tube media for production and cultured under shaking at 28° C. for 4 days at 300 spm.

Row | Structure (SMILES) | OD610
1 | [I-].[K+] [Potassium iodide] | 4
2 | O.O.[Na+].[Na+].[O]=[Mo](=[O])([O-])[O-] [Sodium molybdate dihydrate] | 4
3 | OB(O)O [Boric acid] | 4
4 | O=[Se](=O)(O)O [Sodium selenate] | 3
5 | [Na+].[Na+].[O]=[W](=[O])([O-])[O-] [Sodium tungstate] | 4
6 | O.O.O.O.O.O.[Cl][Cr]([Cl])[Cl] [Chromium (III) chloride hexahydrate] | 3
